Test results published in US20090306012A1, “THERAPEUTIC PROTOCOLS” (priority 2001, published 2009).

Test system: neutrophils
Experiment: Phase I clinical trial of 5-fluorouracil + HA (Hyfive) in metastatic colorectal cancer: toxicity, neutrophil counts
[1] = Patient 2, cycle Day 3, 5FU Cycle 1, HyFive Cycle 2
[2] = Patient 2, cycle Day 7, 5FU Cycle 1, HyFive Cycle 2
[3] = Patient 2, cycle Day 9, 5FU Cycle 1, HyFive Cycle 2
[4] = Patient 2, cycle Day 11, 5FU Cycle 1, HyFive Cycle 2
[5] = Patient 2, cycle Day 14, 5FU Cycle 1, HyFive Cycle 2
[6] = Patient 2, cycle Day 16, 5FU Cycle 1, HyFive Cycle 2
[7] = Patient 2, cycle Day 18, 5FU Cycle 1, HyFive Cycle 2
[8] = Patient 2, cycle Day 21, 5FU Cycle 1, HyFive Cycle 2
[9] = Patient 2, cycle Day 23, 5FU Cycle 1, HyFive Cycle 2
[10] = Patient 2, cycle Day 25, 5FU Cycle 1, HyFive Cycle 2
[11] = Patient 4, cycle Day 4, HyFive Cycle 1, 5FU Cycle 2
[12] = Patient 4, cycle Day 5, HyFive Cycle 1, 5FU Cycle 2
[13] = Patient 4, cycle Day 8, HyFive Cycle 1, 5FU Cycle 2
[14] = Patient 4, cycle Day 10, HyFive Cycle 1, 5FU Cycle 2
[15] = Patient 4, cycle Day 12, HyFive Cycle 1, 5FU Cycle 2
[16] = Patient 4, cycle Day 15, HyFive Cycle 1, 5FU Cycle 2
[17] = Patient 4, cycle Day 17, HyFive Cycle 1, 5FU Cycle 2
[18] = Patient 4, cycle Day 19, HyFive Cycle 1, 5FU Cycle 2
[19] = Patient 4, cycle Day 22, HyFive Cycle 1, 5FU Cycle 2
[20] = Patient 4, cycle Day 24, HyFive Cycle 1, 5FU Cycle 2
[21] = Patient 4, cycle Day 26, HyFive Cycle 1, 5FU Cycle 2
[22] = Patient 5, cycle Day 5, 5FU Cycle 1, HyFive Cycle 2
[23] = Patient 5, cycle Day 10, 5FU Cycle 1, HyFive Cycle 2
[24] = Patient 5, cycle Day 12, 5FU Cycle 1, HyFive Cycle 2
[25] = Patient 5, cycle Day 15, 5FU Cycle 1, HyFive Cycle 2
[26] = Patient 5, cycle Day 17, 5FU Cycle 1, HyFive Cycle 2
[27] = Patient 5, cycle Day 19, 5FU Cycle 1, HyFive Cycle 2
[28] = Patient 5, cycle Day 22, 5FU Cycle 1, HyFive Cycle 2
[29] = Patient 5, cycle Day 24, 5FU Cycle 1, HyFive Cycle 2
[30] = Patient 5, cycle Day 26, 5FU Cycle 1, HyFive Cycle 2
[31] = Patient 6, cycle Day 3, 5FU Cycle 1, HyFive Cycle 2
[32] = Patient 6, cycle Day 8, 5FU Cycle 1, HyFive Cycle 2
[33] = Patient 6, cycle Day 10, 5FU Cycle 1, HyFive Cycle 2
[34] = Patient 6, cycle Day 12, 5FU Cycle 1, HyFive Cycle 2
[35] = Patient 6, cycle Day 15, 5FU Cycle 1, HyFive Cycle 2
[36] = Patient 6, cycle Day 17, 5FU Cycle 1, HyFive Cycle 2
[37] = Patient 6, cycle Day 19, 5FU Cycle 1, HyFive Cycle 2
[38] = Patient 6, cycle Day 22, 5FU Cycle 1, HyFive Cycle 2
[39] = Patient 6, cycle Day 24, 5FU Cycle 1, HyFive Cycle 2
[40] = Patient 6, cycle Day 26, 5FU Cycle 1, HyFive Cycle 2
[41] = Patient 7, cycle Day 3, HyFive Cycle 1, 5FU Cycle 2
[42] = Patient 7, cycle Day 5, HyFive Cycle 1, 5FU Cycle 2
[43] = Patient 7, cycle Day 8, HyFive Cycle 1, 5FU Cycle 2
[44] = Patient 7, cycle Day 10, HyFive Cycle 1, 5FU Cycle 2
[45] = Patient 7, cycle Day 15, HyFive Cycle 1, 5FU Cycle 2
[46] = Patient 7, cycle Day 17, HyFive Cycle 1, 5FU Cycle 2
[47] = Patient 7, cycle Day 19, HyFive Cycle 1, 5FU Cycle 2
[48] = Patient 7, cycle Day 22, HyFive Cycle 1, 5FU Cycle 2
[49] = Patient 7, cycle Day 24, HyFive Cycle 1, 5FU Cycle 2
[50] = Patient 7, cycle Day 26, HyFive Cycle 1, 5FU Cycle 2

Procedure: The 5-FU±HA was given by intravenous administration over one hour on a four week cycle. The initial dose of 5-FU in this study was 450 mg/m^2 daily for three days and the dose of HA 500 mg/m^2 with each administration of 5-FU. Dose escalation occurred in two steps to reach the standard dose of 450 mg/m^2 for five consecutive days with each cycle. Therefore, the initial dose level was 450 mg/r^2 daily for three days, the next 450 mg/m^2 for four days and the final 450 mg/m^2 daily for five days.

## O=c1[nH]cc(F)c(=O)[nH]1 [5FU, 5-fluorouracil]
[1]
  Neutrophil Count: 7.6
  Neutrophil Count as % Day 1: 82%
[2]
  Neutrophil Count: 8.4
  Neutrophil Count as % Day 1: 90%
[3]
  Neutrophil Count: 8.3
  Neutrophil Count as % Day 1: 89%
[4]
  Neutrophil Count: 6.8
  Neutrophil Count as % Day 1: 73%
[5]
  Neutrophil Count: 7
  Neutrophil Count as % Day 1: 75%
[6]
  Neutrophil Count: 7.3
  Neutrophil Count as % Day 1: 78%
[7]
  Neutrophil Count: 8.4
  Neutrophil Count as % Day 1: 90%
[8]
  Neutrophil Count: 8.2
  Neutrophil Count as % Day 1: 88%
[9]
  Neutrophil Count: 7.8
  Neutrophil Count as % Day 1: 84%
[10]
  Neutrophil Count: 8.7
  Neutrophil Count as % Day 1: 94%
Patient 2 L-F (Day 3 Tx), cycle Day 1, 5FU Cycle 1, HyFive Cycle 2
  Neutrophil Count: 9.3
[11]
  Neutrophil Count: 4.4
  Neutrophil Count as % Day 1: 86%
[12]
  Neutrophil Count: 4.4
  Neutrophil Count as % Day 1: 86%
[13]
  Neutrophil Count: 5
  Neutrophil Count as % Day 1: 98%
[14]
  Neutrophil Count: 10.3
  Neutrophil Count as % Day 1: 202%
[15]
  Neutrophil Count: 6.9
  Neutrophil Count as % Day 1: 135%
[16]
  Neutrophil Count: 6.7
  Neutrophil Count as % Day 1: 131%
[17]
  Neutrophil Count: 7.5
  Neutrophil Count as % Day 1: 147%
[18]
  Neutrophil Count: 6.5
  Neutrophil Count as % Day 1: 127%
[19]
  Neutrophil Count: 6.1
  Neutrophil Count as % Day 1: 120%
[20]
  Neutrophil Count: 7.9
  Neutrophil Count as % Day 1: 155%
[21]
  Neutrophil Count: 5.3
  Neutrophil Count as % Day 1: 104%
Patient 4 C-X (4 Day Tx), cycle Day 1, HyFive Cycle 1, 5FU Cycle 2
  Neutrophil Count: 5.1
[22]
  Neutrophil Count: 4.5
  Neutrophil Count as % Day 1: 107%
[23]
  Neutrophil Count: 4.1
  Neutrophil Count as % Day 1: 98%
[24]
  Neutrophil Count: 4.3
  Neutrophil Count as % Day 1: 102%
[25]
  Neutrophil Count: 3.7
  Neutrophil Count as % Day 1: 88%
[26]
  Neutrophil Count: 3.3
  Neutrophil Count as % Day 1: 79%
[27]
  Neutrophil Count: 4.3
  Neutrophil Count as % Day 1: 102%
[28]
  Neutrophil Count: 4.3
  Neutrophil Count as % Day 1: 102%
[29]
  Neutrophil Count: 4
  Neutrophil Count as % Day 1: 95%
[30]
  Neutrophil Count: 4.5
  Neutrophil Count as % Day 1: 107%
Patient 5 J-M (5 Day Tx), cycle Day 1, 5FU Cycle 1, HyFive Cycle 2
  Neutrophil Count: 4.2
[31]
  Neutrophil Count: 4.3
  Neutrophil Count as % Day 1: 81%
[32]
  Neutrophil Count: 4.5
  Neutrophil Count as % Day 1: 85%
[33]
  Neutrophil Count: 6.6
  Neutrophil Count as % Day 1: 125%
[34]
  Neutrophil Count: 4.5
  Neutrophil Count as % Day 1: 85%
[35]
  Neutrophil Count: 4.2
  Neutrophil Count as % Day 1: 79%
[36]
  Neutrophil Count: 5.5
  Neutrophil Count as % Day 1: 104%
[37]
  Neutrophil Count: 5.3
  Neutrophil Count as % Day 1: 100%
[38]
  Neutrophil Count: 5.7
  Neutrophil Count as % Day 1: 108%
[39]
  Neutrophil Count: 5.4
  Neutrophil Count as % Day 1: 102%
[40]
  Neutrophil Count: 5
  Neutrophil Count as % Day 1: 94%
Patient 6 J-B (5 Day Tx), cycle Day 1, 5FU Cycle 1, HyFive Cycle 2
  Neutrophil Count: 5.3
[41]
  Neutrophil Count: 2.3
  Neutrophil Count as % Day 1: 77%
[42]
  Neutrophil Count: 2.8
  Neutrophil Count as % Day 1: 93%
[43]
  Neutrophil Count: 3.2
  Neutrophil Count as % Day 1: 107%
[44]
  Neutrophil Count: 2.5
  Neutrophil Count as % Day 1: 83%
[45]
  Neutrophil Count: 2.7
  Neutrophil Count as % Day 1: 90%
[46]
  Neutrophil Count: 2.5
  Neutrophil Count as % Day 1: 83%
[47]
  Neutrophil Count: 3
  Neutrophil Count as % Day 1: 100%
[48]
  Neutrophil Count: 3.4
  Neutrophil Count as % Day 1: 113%
[49]
  Neutrophil Count: 3.1
  Neutrophil Count as % Day 1: 103%
[50]
  Neutrophil Count: 3.5
  Neutrophil Count as % Day 1: 117%
Patient 7 V-D (5 Day Tx), cycle Day 1, HyFive Cycle 1, 5FU Cycle 2
  Neutrophil Count: 3
